From US8853248B2, “(1,2,3-triazolyl)sulfonyl derivatives” (priority 2012, dated 2014)

Experiments:
human recombinant COX-2 = target: T1, human recombinant COX-2 (Homo sapiens, UniProt P35354); test: COX activity assay (Cayman colorimetric kit), COX-2; assay type: biochemical; conditions: purified enzyme, peroxidase activity read at 590 nm
T1 construct: purchased Cayman Chemicals
T1 sequence (P35354 18-604): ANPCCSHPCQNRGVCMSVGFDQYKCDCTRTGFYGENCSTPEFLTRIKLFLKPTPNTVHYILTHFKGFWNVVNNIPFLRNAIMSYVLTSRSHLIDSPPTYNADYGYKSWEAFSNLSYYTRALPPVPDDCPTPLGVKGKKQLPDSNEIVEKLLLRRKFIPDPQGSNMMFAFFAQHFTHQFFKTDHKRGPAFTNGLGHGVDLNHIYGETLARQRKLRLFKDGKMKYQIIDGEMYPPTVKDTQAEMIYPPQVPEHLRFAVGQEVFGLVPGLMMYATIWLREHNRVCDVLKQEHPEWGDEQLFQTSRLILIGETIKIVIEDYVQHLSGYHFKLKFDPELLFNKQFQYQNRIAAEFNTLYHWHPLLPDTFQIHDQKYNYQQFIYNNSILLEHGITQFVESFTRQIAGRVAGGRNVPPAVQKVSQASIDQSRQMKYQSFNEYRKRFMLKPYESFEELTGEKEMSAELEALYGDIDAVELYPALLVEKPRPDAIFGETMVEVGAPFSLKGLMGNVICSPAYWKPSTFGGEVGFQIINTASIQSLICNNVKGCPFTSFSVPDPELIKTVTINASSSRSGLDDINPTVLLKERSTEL
Description: (§1) COX activity was measured using an assay kit obtained from Cayman Chemicals in accord with the instruction manual of the manufacturer “COX Activity Assay, Catalog No. 760151, Colorimetric Assay for the Determination of COX Activity.” The enzyme activity was determined by the peroxidase activity of cyclooxygenases on arachidonic acid and monitored colorimetrically at 590 nm by the appearance of oxidized N,N,N′,N′-tetramethyl-p-phenylenediamine. Both ovine COX-1 and human recombinant COX-2 were obtained from Cayman Chemicals.

[1] = test system: adjuvant-induced arthritis; assay type: in vivo, rat (male Lewis rats); conditions: 30 mg/kg daily by intubation, 7 treatment days; day 28 minus day 21; micronized compound; standard deviation in parentheses
Description: As mentioned earlier, the compounds of formula (1) and pharmaceutically acceptable salts of compounds of formula (1) are useful in the treatment or prevention of inflammations. For example, they can be used as anti-inflammatory agents in the treatment of inflammatory joint diseases, such as arthritis, and in other diseases where inflammation is the inherent cause.
The adjuvant was prepared by homogenizing 170 mg of heat-killed and dried mycobacterium tuberculosis (Difco) in 22.7 mL of ‘Incomplete Freund's Adjuvant’ (ICFA, Difco). Male Lewis rats with body weights of 130-150 g were injected i.d. at the base of the tail with 0.1 ml of adjuvant. The non-diseased animals received 0.1 mL of ICFA i.d. The animals were housed individually and received feed and water ad libitum. The thus-induced arthritis was allowed to develop without treatment during 21 days. On day 21 the body weight of each animal was determined. At the same time, the volumes of the two hind paws of each animal were measured by immersing the paws in an aqueous plethysmograph up to the height of the lateral malleolus. […] Paw volumes and body weight were recorded diurnally. At the end of the treatment period (day 28), body weights and volumes of the hind paws were again determined. The changes over the treatment period were calculated. […] Subsequently, the animals were sacrificed and the liver weights recorded. […]

ovine COX-1 = target: T2, ovine COX-1 (Ovis aries, UniProt P05979); test: COX activity assay (Cayman colorimetric kit), COX-1; assay type: biochemical; conditions: at a level of 300 μM; purified enzyme, peroxidase activity read at 590 nm
T2 construct: purchased Cayman Chemicals
T2 sequence (P05979 25-600): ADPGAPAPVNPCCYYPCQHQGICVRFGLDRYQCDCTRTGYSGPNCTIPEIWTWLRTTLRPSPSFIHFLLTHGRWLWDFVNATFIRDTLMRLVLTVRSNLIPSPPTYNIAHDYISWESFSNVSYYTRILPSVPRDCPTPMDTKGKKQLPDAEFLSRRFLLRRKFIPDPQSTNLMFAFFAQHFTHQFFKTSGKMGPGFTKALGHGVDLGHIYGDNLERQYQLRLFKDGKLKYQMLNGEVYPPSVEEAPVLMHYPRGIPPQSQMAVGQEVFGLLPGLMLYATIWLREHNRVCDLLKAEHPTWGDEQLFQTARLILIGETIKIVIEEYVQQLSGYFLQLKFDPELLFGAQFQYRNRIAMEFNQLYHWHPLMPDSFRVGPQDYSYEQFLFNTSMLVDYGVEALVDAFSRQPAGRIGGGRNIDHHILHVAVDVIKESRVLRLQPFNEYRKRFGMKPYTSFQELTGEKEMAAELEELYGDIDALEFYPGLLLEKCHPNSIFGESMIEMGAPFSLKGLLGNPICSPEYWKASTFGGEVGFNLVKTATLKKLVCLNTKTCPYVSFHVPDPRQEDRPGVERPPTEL
Description: as §1

CNS(=O)(=O)c1nn[nH]c1-c1cc(C(C)(C)C)c(O)c(C(C)(C)C)c1 [Compound 1i, 5-(3,5-di-tert-butyl-4-hydroxy-phenyl)-N-methyl-1H-triazole-4-sulfonamide]
IC50 (human recombinant COX-2): 68 µM | Volume change of left paw [1]: −0.73 (0.08) mL | Volume change of right paw [1]: −0.63 (0.11) mL | effect on COX-1 activity (ovine COX-1): no effect
